We go through three compounds from patent US5039446A, “Liquid detergent with stabilized enzyme” (Genencor International, Inc., priority 1990, dated 1991).

The structures appear in SMILES notation. Like-named read-outs stand apart in the source and are kept apart here.

For test [1], the target named is subtilisin. As to conditions: inhibitor of subtilisin, read-out: inhibition constant (KI), cited from earlier work.
The test system of test [2] is subtilisin. Kind of test: Example 1: incubation of subtilisin with or without PBA at pH 7.5 and 37 degrees, activity measured after 1:500 dilution (succinyl-L-Ala-L-Ala-L-Pro-L-Phe-p-nitroanilide hydrolysis, 410 nm). Type of test: biochemical. As to conditions: pH 7.5, 37 degrees celsius, even in the presence of 10 mm EDTA. As for the experimental part: Enzyme activity was measured after a 1:500 dilution by following the hydrolysis of the substrate succinyl-L-Ala-L-Ala-L-Pro-L-Phe-P-nitroanilide. The reaction was monitored by following the release of p-nitroaniline spectrophotometrically at 410 nm. One unit of activity is defined as the amount of enzyme that produces A410/min of 1.0 at 25'C. in 0.1M Tris pH 8.6, […] substrate.

Regarding `CCCCB(O)O` [butane boronic acid], the Ki on subtilisin [1] is 7200 µM.
With `CC(=O)N[C@@H](CC(C)C)C(=O)N[C@@H](CC(C)C)C(=O)N[C@H](C=O)CCCNC(=N)N` [leupeptin], the inhibition constant Ki on subtilisin [1] (listed as Leupeptin) is 230 µM; on subtilisin [1], 160 µM.
With `OB(O)c1ccccc1` [phenylboronic acid], the “stabilization of subtilisin (in words)” value with subtilisin [2] is “very effective agent for stabilization of subtilisin”. In addition, the values for the Ki at subtilisin [1] (listed as Phenyl boronic acid) and on subtilisin [1] were 160 µM and 230 µM, respectively.

For orientation: Ki means the equilibrium dissociation constant of an inhibitor or competing ligand from its target.
